According to ChEMBL document CHEMBL1255373, “In vitro antibacterial activity of CE-156811, a novel analog derived from hygromycin A” (2008):

What was measured:
Format in all cases: functional
[1] = system: Enterococcus faecalis; assay: Antibacterial activity against linezolid-resistant Enterococcus faecalis 03A1128 by broth microdilution method
[2] = system: Enterococcus faecium; assay: Antibacterial activity against linezolid-resistant Enterococcus faecium 03B1075 by broth microdilution method
[3] = system: Enterococcus faecium; assay: Antibacterial activity against linezolid-resistant Enterococcus faecium 03B1077 by broth microdilution method
[4] = system: Enterococcus faecium; assay: Antibacterial activity against linezolid-resistant Enterococcus faecium 03B1074 by broth microdilution method
[5] = system: Staphylococcus aureus; assay: Antibacterial activity against linezolid-resistant Staphylococcus aureus 01A1221 by broth microdilution method
[6] = system: Enterococcus faecium; assay: Antibacterial activity against linezolid-resistant Enterococcus faecium 03B1078 by broth microdilution method
[7] = system: Staphylococcus aureus; assay: Antibacterial activity against […] Staphylococcus aureus ATCC 29213 by broth microdilution method
[8] = system: Enterococcus faecium; assay: Antibacterial activity against linezolid-resistant Enterococcus faecium 03B1076 by broth microdilution method
[9] = system: Enterococcus faecium; assay: Antibacterial activity against linezolid-resistant Enterococcus faecium 03B1073 by broth microdilution method
[10] = system: Enterococcus faecalis; assay: Antibacterial activity against […] Enterococcus faecalis ATCC 29212 by broth microdilution method
[11] = system: Staphylococcus aureus; assay: Antibacterial activity against linezolid-resistant Staphylococcus aureus 01A1220 by broth microdilution method
[12] = system: Klebsiella pneumoniae; assay: Antibacterial activity against extended-spectrum beta-lactamase producing Klebsiella pneumoniae clinical isolate by broth microdilution method
[13] = system: Staphylococcus; assay: Antibacterial activity against coagulase-negative Staphylococcus clinical isolate by broth microdilution method
[14] = system: Salmonella sp.; assay: Antibacterial activity against Salmonella sp. by broth microdilution method
[15] = system: Klebsiella pneumoniae; assay: Antibacterial activity against Klebsiella pneumoniae clinical isolate by broth microdilution method
[16] = system: Providencia rettgeri; assay: Antibacterial activity against Providencia rettgeri clinical isolate by broth microdilution method
[17] = system: Corynebacterium sp.; assay: Antibacterial activity against Corynebacterium sp. by broth microdilution method
[18] = system: Legionella pneumophila; assay: Antibacterial activity against Legionella pneumophila clinical isolate by broth microdilution method
[19] = system: Stenotrophomonas maltophilia; assay: Antibacterial activity against Stenotrophomonas maltophilia clinical isolate by broth microdilution method
[20] = system: Citrobacter koseri; assay: Antibacterial activity against Citrobacter diversus clinical isolate by broth microdilution method
[21] = system: Klebsiella aerogenes; assay: Antibacterial activity against Enterobacter aerogenes clinical isolate by broth microdilution method
[22] = system: Serratia marcescens; assay: Antibacterial activity against Serratia marcescens clinical isolate by broth microdilution method
[23] = system: Listeria monocytogenes; assay: Antibacterial activity against Listeria monocytogenes clinical isolate by broth microdilution method
[24] = system: Streptococcus pyogenes; assay: Antibacterial activity against Streptococcus pyogenes clinical isolate by broth microdilution method
[25] = system: Shigella sp.; assay: Antibacterial activity against Shigella sp. by broth microdilution method
[26] = system: Burkholderia cepacia; assay: Antibacterial activity against Burkholderia cepacia clinical isolate by broth microdilution method
[27] = system: Proteus mirabilis; assay: Antibacterial activity against Proteus mirabilis clinical isolate by broth microdilution method
[28] = system: Klebsiella oxytoca; assay: Antibacterial activity against Klebsiella oxytoca clinical isolate by broth microdilution method
[29] = system: Acinetobacter sp.; assay: Antibacterial activity against Acinetobacter sp. by broth microdilution method
[30] = system: Neisseria sp.; assay: Antibacterial activity against Neisseria sp. by broth microdilution method
[31] = system: Haemophilus influenzae; assay: Antibacterial activity against Haemophilus influenzae clinical isolate by broth microdilution method
[32] = system: Morganella morganii; assay: Antibacterial activity against Morganella morganii clinical isolate by broth microdilution method
[33] = system: Enterobacter cloacae; assay: Antibacterial activity against Enterobacter cloacae clinical isolate by broth microdilution method
[34] = system: Proteus vulgaris; assay: Antibacterial activity against Proteus vulgaris clinical isolate by broth microdilution method
[35] = system: Citrobacter freundii; assay: Antibacterial activity against Citrobacter freundii clinical isolate by broth microdilution method
[36] = system: Escherichia coli; assay: Antibacterial activity against Escherichia coli clinical isolate by broth microdilution method
[37] = system: Pseudomonas aeruginosa; assay: Antibacterial activity against Pseudomonas aeruginosa clinical isolate by broth microdilution method
[38] = system: Moraxella catarrhalis; assay: Antibacterial activity against Moraxella catarrhalis clinical isolate by broth microdilution method

O=C(N[C@H](CO)[C@H](O)c1ccc([N+](=O)[O-])cc1)C(Cl)Cl [CHLORAMPHENICOL]
16 µg/mL: MIC [6]
> 32 µg/mL: MIC [1] | MIC [11]
8 µg/mL: MIC [3] | MIC [7] | MIC [9] | MIC [10]
32 µg/mL: MIC [2] | MIC [4] | MIC [5] | MIC [8]

C[C@H]1COc2c(N3CCN(C)CC3)c(F)cc3c(=O)c(C(=O)O)cn1c23.C[C@H]1COc2c(N3CCN(C)CC3)c(F)cc3c(=O)c(C(=O)O)cn1c23.O [LEVOFLOXACIN]
1 µg/mL: MIC50 [23] | MIC90 [23]
0.008 µg/mL: MIC50 [30] | MIC90 [30]
0.015 µg/mL: MIC90 [18] | MIC50 [31]
0.25 µg/mL: MIC50 [13] | MIC90 [31]
8 µg/mL: MIC90 [12] | MIC90 [14] | MIC90 [15] | MIC90 [16] | MIC90 [20] | MIC90 [21] | MIC90 [22] | MIC90 [25] | MIC90 [27] | MIC90 [28] | MIC90 [32] | MIC90 [33] | MIC90 [34] | MIC90 [35] | MIC90 [36]
0.5 µg/mL: MIC50 [17] | MIC50 [24]
0.06 µg/mL: MIC50 [12] | MIC50 [14] | MIC50 [15] | MIC50 [16] | MIC50 [20] | MIC50 [21] | MIC50 [22] | MIC50 [25] | MIC50 [27] | MIC50 [28] | MIC50 [32] | MIC50 [33] | MIC50 [34] | MIC50 [35] | MIC50 [36] | MIC50 [38] | MIC90 [38]
2 µg/mL: MIC50 [19] | MIC90 [24] | MIC50 [26] | MIC50 [29] | MIC50 [37]
16 µg/mL: MIC90 [19] | MIC90 [26] | MIC90 [29] | MIC90 [37]
0.004 µg/mL: MIC50 [18]
32 µg/mL: MIC90 [13] | MIC90 [17]
